According to paper PMC8092326 (mBio, 2021):
Values joined by “and” are separate entries in the source; they are usually repeats but may differ in a detail not shown here. Equal entries are not always repeated. “Also recorded” adds a separate entry of the source. Where two headings read alike, the source gives them in different places. *1 amine or outer side, *2 acyl side, *3 side chain or, on linkers, in order; H or OH if unused. Where a SMILES comes first, the peptide text is derived from it. Bridges are numbered along the chain shown (N, C = ends). Roman numbers before positions name the chains, in order. [ ]: non-standard residue; d: D form. Actinocin(9to1) = Cc1c2oc3c(C)ccc(C(=O)[*:1])c3nc-2c(C(=O)[*:2])c(N)c1=O; NMeV = CN[C@H](C(=O)O)C(C)C; Sar = CNCC(=O)O

Columns and labels:
[1] = target: human ACE2-VLP spike protein interaction (UniProt P0DTC2+Q9BYF1); assay type: binding, SARS-CoV-2
Chain of human ACE2-VLP spike protein interaction (Q9BYF1 18-740, one chain of several): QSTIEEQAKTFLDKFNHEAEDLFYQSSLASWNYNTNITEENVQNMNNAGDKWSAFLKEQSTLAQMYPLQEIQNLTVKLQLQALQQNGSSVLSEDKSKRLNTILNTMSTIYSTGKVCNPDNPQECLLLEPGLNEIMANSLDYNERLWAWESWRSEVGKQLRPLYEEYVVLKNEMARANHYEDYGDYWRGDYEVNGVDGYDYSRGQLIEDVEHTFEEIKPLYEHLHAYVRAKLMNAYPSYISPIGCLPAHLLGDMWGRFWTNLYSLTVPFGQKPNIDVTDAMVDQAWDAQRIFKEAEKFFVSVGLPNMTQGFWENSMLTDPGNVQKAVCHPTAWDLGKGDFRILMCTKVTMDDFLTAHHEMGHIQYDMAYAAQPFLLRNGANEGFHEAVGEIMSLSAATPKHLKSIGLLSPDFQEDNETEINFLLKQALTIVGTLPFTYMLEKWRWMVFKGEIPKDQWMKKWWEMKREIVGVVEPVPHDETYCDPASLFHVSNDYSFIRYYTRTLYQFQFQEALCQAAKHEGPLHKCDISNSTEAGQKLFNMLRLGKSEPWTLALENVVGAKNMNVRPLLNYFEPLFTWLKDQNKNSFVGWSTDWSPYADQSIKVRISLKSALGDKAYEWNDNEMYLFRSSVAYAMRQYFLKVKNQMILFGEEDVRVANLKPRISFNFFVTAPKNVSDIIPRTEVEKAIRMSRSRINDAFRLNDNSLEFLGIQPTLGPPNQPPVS

[2] = target: T1, RBD-mimic1 peptide-ACE2 interaction (Homo sapiens, UniProt Q9BYF1); assay: SPR competition (ABA injection) between compound and RBD-mimic1 peptide for immobilized ACE2; assay type: binding; conditions: for inhibition at 1 µM: read-out: 1:1 competition between compound vs RBD-mimic1 peptide at 1 μM
T1 construct: purchased Assay Matrix; R&D Systems (ACE2); Mimotopes, Australia (peptide)
T1 sequence (Q9BYF1 18-740 limits assumed): as the sequence (Q9BYF1 18-740, one chain of several) above

[3] = cited from earlier work
human ACE2 = target: T2, human ACE2 (Homo sapiens, UniProt Q9BYF1); assay: biochemical; assay type: binding; conditions: immobilized recombinant human ACE2; ± one SD; read-out: KD (nM) determined by SPR
T2 construct: purchased Assay Matrix; R&D Systems
T2 sequence (Q9BYF1 18-805): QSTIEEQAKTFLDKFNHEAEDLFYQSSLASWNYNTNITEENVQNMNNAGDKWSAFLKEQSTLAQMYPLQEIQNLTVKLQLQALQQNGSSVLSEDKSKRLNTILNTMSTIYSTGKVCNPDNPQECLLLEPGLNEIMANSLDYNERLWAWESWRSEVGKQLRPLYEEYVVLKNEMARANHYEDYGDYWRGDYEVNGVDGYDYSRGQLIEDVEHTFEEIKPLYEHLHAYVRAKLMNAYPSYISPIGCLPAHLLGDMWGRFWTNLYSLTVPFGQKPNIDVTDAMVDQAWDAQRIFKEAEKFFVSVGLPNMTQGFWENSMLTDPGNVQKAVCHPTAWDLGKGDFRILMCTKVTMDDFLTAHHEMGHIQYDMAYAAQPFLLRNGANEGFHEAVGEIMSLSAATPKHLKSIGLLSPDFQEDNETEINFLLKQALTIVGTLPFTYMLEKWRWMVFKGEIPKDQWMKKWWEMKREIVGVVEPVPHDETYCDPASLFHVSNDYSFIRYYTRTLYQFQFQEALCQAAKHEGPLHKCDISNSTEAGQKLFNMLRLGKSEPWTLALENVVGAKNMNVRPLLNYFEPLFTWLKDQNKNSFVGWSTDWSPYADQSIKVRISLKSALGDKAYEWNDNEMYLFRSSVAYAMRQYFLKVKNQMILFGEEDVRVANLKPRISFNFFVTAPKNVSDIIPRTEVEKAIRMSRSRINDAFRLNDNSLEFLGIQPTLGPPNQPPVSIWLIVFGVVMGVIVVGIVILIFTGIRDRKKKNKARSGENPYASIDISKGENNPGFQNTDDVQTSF

[4] = system: SARS-CoV-2 infection of Vero-E6 cells; conditions: for Screening data: 48 h
in vitro = conditions: African green monkey
[5] = system: SARS-CoV-2 infection of Vero-E6 cells; assay: Dose-response inhibition of SARS-CoV-2 infection of Vero-E6 cells (24 h, in situ ELISA); assay type: cell-based; conditions: for IC50: Severe acute respiratory syndrome coronavirus 2, Vero C1008, 24 h infection, Vero-E6, MOI 0.12, read-out: IC50 (μM) Mean ± SD; for SI (selectivity index, CC50/IC50): Vero-E6 cells
SARS-CoV-2 spike protein = target: T3, SARS-CoV-2 spike protein (Severe acute respiratory syndrome coronavirus 2, UniProt P0DTC2); assay: biochemical; assay type: binding
T3 construct: made in house; host or cells: HEK 293 cells

human albumin = conditions: cited from earlier work
[6] = indicative of published Cmax values, ref not given, read-out: Cmax

Compound | 1:1 Competition between compound vs CoV2 VLP [1] | inhibition at 1 µM [2] [%] | Cmax [3, 6] [nM] | Kd (human ACE2) | Screening result at the highest concentration tested [4] | CC50 (in vitro) [µM] | IC50 [5] [µM] | Blocking (%) [1] | other results
COC[C@H]1C[C@@H](c2ncc(-c3ccc4c(c3)COc3cc5c(ccc6nc([C@@H]7CC[C@H](C)N7C(=O)[C@@H](NC(=O)OC)C(C)C)[nH]c65)cc3-4)[nH]2)N(C(=O)[C@H](NC(=O)OC)c2ccccc2)C1 [Velpatasvir] | 68.1% ± 9.44 | 61.4 | 293 ± 61.2 | 24.9 ± 4.24 nM | toxic | – | – | – | Toxicity to Vero-E6 cells (in words, discussion) [4]: toxic; Screening data ([4]; 100 μM): 500 μM: toxic, 100 μM: inactive; Screening data ([4]; 500 μM): 500 μM: toxic, 100 μM: inactive
COC(=O)N[C@H](C(=O)N1CC2(CC2)C[C@H]1c1ncc(-c2ccc3c(c2)C(F)(F)c2cc(-c4ccc5nc([C@@H]6[C@H]7CC[C@H](C7)N6C(=O)[C@@H](NC(=O)OC)C(C)C)[nH]c5c4)ccc2-3)[nH]1)C(C)C [Ledipasvir] | 84.9% ± 7.3 | 79.4 | 406 | 417 ± 50.7 nM | – | > 1000 | – | – | Toxicity to Vero-E6 cells (in words, discussion) [4]: toxic; Screening data ([4]; 400 μM): 400 μM: inactive
C[C@H]1O[C@@H](O[C@H]2[C@@H](O)C[C@H](O[C@H]3[C@@H](O)C[C@H](O[C@H]4CC[C@@]5(C)[C@H](CC[C@@H]6[C@@H]5C[C@@H](O)[C@]5(C)[C@@H](C7=CC(=O)OC7)CC[C@]65O)C4)O[C@@H]3C)O[C@@H]2C)C[C@H](O)[C@@H]1O [Digoxin] | 31.5% ± 4.55 | 27.6 | – | 1250 ± 97.2 nM | – | – | – | – | –
CC1(C)CCC(CN2CCN(c3ccc(C(=O)NS(=O)(=O)c4ccc(NCC5CCOCC5)c([N+](=O)[O-])c4)c(Oc4cnc5[nH]ccc5c4)c3)CC2)=C(c2ccc(Cl)cc2)C1 [Venetoclax] | 69.1% ± 7.31 | 66.3 | 2400 ± 1300 | 290 ± 31.1 nM | toxic | 4.9 ± 2.2 | – | – | Screening result at lower concentrations [4]: inactive; Screening data ([4]; 10 μM): 10 μM: 40 % active
CS(=O)(=O)c1cccc(C[C@H](NC(=O)c2c(Cl)cc3c(c2Cl)CCN(C(=O)c2ccc4ccoc4c2)C3)C(=O)O)c1 [Sodium lifitegrast] | – | – | – | – | active | > 5000 | 1300 | 99.8% and 99.8 ± 6.4% | SI (selectivity index, CC50/IC50) [5]: >3.9; Kd (SARS-CoV-2 spike protein): 0.00192 µM; Cmax ([3]; in blood, indicative of published Cmax values, ref not given, read-out: Cmax in blood): 2.7 ± 2.1 nM; Cmax ([3]; in tears, indicative of published Cmax values, ref not given, read-out: Cmax in tears (converted)): 143000 nM; Cytotoxicity in screening at the highest concentration tested [4]: no apparent cytotoxicity; Cytotoxicity toward Vero-E6 cells (Vero-E6 cells): noncytotoxic
CC#CC(=O)N1CCC[C@H]1c1nc(-c2ccc(C(=O)Nc3ccccn3)cc2)c2c(N)nccn12 [Acalabrutinib] | 81.2% ± 12.9 | 77.4 | 1770 | 25.7 ± 0.91 nM | toxic | 406 ± 21.2 | 184 | – | SI (selectivity index, CC50/IC50) [5]: 2.2; Screening data ([4]; 100 μM): 100 μM: inactive
C[C@H]1O[C@@H](O[C@H]2[C@@H](O)C[C@H](O[C@H]3[C@@H](O)C[C@H](O[C@H]4CC[C@@]5(C)[C@H](CC[C@@H]6[C@@H]5CC[C@]5(C)[C@@H](C7=CC(=O)OC7)CC[C@]65O)C4)O[C@@H]3C)O[C@@H]2C)C[C@H](O)[C@@H]1O [Digitoxin] | 23.6% ± 4.25 | 25.1 | – | 1480 ± 87.6 nM | – | – | – | – | –
Cc1cc(-c2ccc(/N=N/c3ccc4c(S(=O)(=O)O)cc(S(=O)(=O)O)c(N)c4c3O)c(C)c2)ccc1/N=N/c1ccc2c(S(=O)(=O)O)cc(S(=O)(=O)O)c(N)c2c1O [Evans blue] | 98.9% ± 6.43 | 99.8 | – | 1.6 nM and 1.63 nM | active | > 1000 | 28.1 ± 1.2 | 78.2 ± 6.3% | Initial SPR screening for binding to the VLP spike protein (SARS-CoV-2 spike protein): binding; Inhibition of the RBD-mimic1 peptide-ACE2 interaction (in words) ([2]; 1:1 ratio at 1 μM): complete inhibition; Affinity for human albumin (human albumin): low μM range; Cytotoxicity in screening at the highest concentration tested [4]: no apparent cytotoxicity; Cytotoxicity toward Vero-E6 cells (Vero-E6 cells; at 1,000 μM): no cytotoxicity
Epigallocatechin-3-gallate | 33.8% ± 4.67 | – | – | – | – | – | – | – | 1:1 competition between compound vs RBD-mimic1 peptide at 1 μM ([2]; 1:1 ratio at 1 μM, immobilized ACE2): 28.9% ± 1.43
Cc1cc(O)c(C(=O)N[C@@H](C(=O)N[C@@H]2C(=O)N3C(C(=O)O)=C(CSc4nnnn4C)CS[C@H]23)c2ccc(O)cc2)cn1 [Cefpiramide] | – | – | 88000 | – | active | > 1000 | > 1500 | 81.9% and 81.9 ± 8.4% | Activity against SARS-CoV-2 infection in dose-response experiments ([5]; at […]): inactive; Initial SPR screening for binding to the VLP spike protein (SARS-CoV-2 spike protein): binding; Kd (SARS-CoV-2 spike protein): 0.33 µM; Cmax ([3]; intravenous, maximum dose 2,000 mg, single dose, read-out: Cmax): 205000 nM; Cytotoxicity in screening at the highest concentration tested [4]: no apparent cytotoxicity; Screening data ([4]; 800 μM): 800 μM: ∼50% active
CCc1c2c(nc3ccc(OC(=O)N4CCC(N5CCCCC5)CC4)cc13)-c1cc3c(c(=O)n1C2)COC(=O)[C@]3(O)CC [Irinotecan] | 100% ± 9.17 | 100 | – | 825 ± 112 nM | – | – | – | – | Inhibition of the RBD-mimic1 peptide-ACE2 interaction (in words) ([2]; 1:1 ratio at 1 μM): complete inhibition; also recorded: complete blocking; Toxicity to Vero-E6 cells (in words, discussion) [4]: toxic
COc1cc(-c2ccc(/N=N/c3ccc4c(S(=O)(=O)O)cc(S(=O)(=O)O)c(N)c4c3O)c(OC)c2)ccc1/N=N/c1ccc2c(S(=O)(=O)O)cc(S(=O)(=O)O)c(N)c2c1O [Chicago sky blue] | 7.29% ± 1.64 | 2.47 | – | 349 ± 29.8 nM | – | – | – | – | –
CO[C@H]1C[C@@H]2CC[C@@H](C)[C@@](O)(O2)C(=O)C(=O)N2CCCC[C@H]2C(=O)O[C@H]([C@H](C)C[C@@H]2CC[C@H](n3cnnn3)[C@H](OC)C2)CC(=O)[C@H](C)/C=C(\C)[C@@H](O)[C@@H](OC)C(=O)[C@H](C)C[C@H](C)/C=C/C=C/C=C/1C [Zotarolimus] | 71.6% ± 6.47 | 69.4 | – | 2760 ± 178 nM | – | – | – | – | –
COc1ccc2c(O[C@@H]3C[C@H]4C(=O)N[C@]5(C(=O)NS(=O)(=O)C6CC6)C[C@H]5/C=C\CCCCN(C)C(=O)[C@@H]4C3)cc(-c3nc(C(C)C)cs3)nc2c1C [Simeprevir] | – | – | 2590 | – | toxic | 16.4 ± 0.8 | – | 88.6 ± 7.2% | Toxicity to Vero-E6 cells (in words, discussion) [4]: toxic; Screening data ([4]; 10 μM): 100 μM: toxic, 10 μM: inactive; Screening data ([4]; 100 μM): 100 μM: toxic, 10 μM: inactive
Cc1ccc(NC(=O)C2(c3ccc4c(c3)OC(F)(F)O4)CC2)nc1-c1cccc(C(=O)O)c1 [Lumacaftor] | – | – | 5420 | – | active | 314 ± 22.7 | 84 ± 3.7 | 71.4 ± 3.1% | SI (selectivity index, CC50/IC50) [5]: 3.7; Kd (SARS-CoV-2 spike protein): 1.51 µM; Cytotoxicity in screening at the highest concentration tested [4]: no apparent cytotoxicity
N[C@@H](Cc1ccc(O)c(O)c1)C(=O)O [Levodopa] | 42.1% ± 5.17 | 36.4 | – | 13.6 ± 0.97 nM | – | – | – | – | –
Cc1ccc(C(=O)Nc2ccc(S(=O)(=O)O)c3cc(S(=O)(=O)O)cc(S(=O)(=O)O)c23)cc1NC(=O)c1cccc(NC(=O)Nc2cccc(C(=O)Nc3cc(C(=O)Nc4ccc(S(=O)(=O)O)c5cc(S(=O)(=O)O)cc(S(=O)(=O)O)c45)ccc3C)c2)c1 [Suramin] | – | – | 1890 | – | – | > 1000 | 46.2 ± 1.6 | – | SI (selectivity index, CC50/IC50) [5]: >21.6; Antiviral potency [4]: 100%
Cc1c2oc3c(C)ccc(C(=O)N[C@@H]4C(=O)N[C@H](C(C)C)C(=O)N5CCC[C@H]5C(=O)N(C)CC(=O)N(C)[C@@H](C(C)C)C(=O)O[C@@H]4C)c3nc-2c(C(=O)N[C@@H]2C(=O)N[C@H](C(C)C)C(=O)N3CCC[C@H]3C(=O)N(C)CC(=O)N(C)[C@@H](C(C)C)C(=O)O[C@@H]2C)c(N)c1=O [Dactinomycin] (I: T[dV]P[Sar][NMeV] / II: T[dV]P[Sar][NMeV]; ester I:1-I:C, II:1-II:C; linker I:N-II:N via Actinocin(9to1)) | – | – | – | – | – | – | – | 69.7 ± 1.8% | Initial SPR screening for binding to the VLP spike protein (SARS-CoV-2 spike protein): binding
